According to ChEMBL document CHEMBL1201862, “PubChem BioAssay data set” (2004):
The source made the active and inactive calls.

Key:
[1] = target: Mitogen-activated protein kinase 8 (Homo sapiens, UniProt P45983); format: functional;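 note: value comes from one member of a kinome-wide kinase profiling panel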
[2] = target: ALK tyrosine kinase receptor (Homo sapiens, UniProt Q9UM73); format: functional;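 note: ALK tested as one member of a kinase panel screen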
Activated CDC42 kinase 1 = Activated CDC42 kinase 1 (Homo sapiens, UniProt Q07912); assay: Navigating the Kinome. Panel member name: ACK1; format: functional
[3] = target: Serine/threonine-protein kinase TAO1 (Homo sapiens, UniProt Q7L7X3); format: functional
Aurora kinase B = Aurora kinase B (Homo sapiens, UniProt Q96GD4); format: functional
[4] = target: High affinity nerve growth factor receptor (Homo sapiens, UniProt P04629); format: functional;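 note: NTRK1 tested as one member of a kinome-wide profiling panel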
[5] = target: Dual specificity protein kinase CLK2 (Homo sapiens, UniProt P49760); format: functional
[6] = target: Leukocyte tyrosine kinase receptor (Homo sapiens, UniProt P29376); assay: Navigating the Kinome. Panel member name: LTK; format: functional
[7] = target: Dual specificity protein kinase CLK4 (Homo sapiens, UniProt Q9HAZ1); format: functional
[8] = target: Dual specificity mitogen-activated protein kinase kinase 2 (Homo sapiens, UniProt P36507); assay: Navigating the Kinome. Panel member name: MAP2K2; format: functional
[9] = target: Dual specificity mitogen-activated protein kinase kinase 1 (Homo sapiens, UniProt Q02750); assay: Navigating the Kinome. Panel member name: MAP2K1; format: functional
[10] = target: Casein kinase I isoform alpha (Homo sapiens, UniProt P48729); format: functional
[11] = target: Serine/threonine-protein kinase D3 (Homo sapiens, UniProt O94806); format: functional;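 note: determined within a kinase panel screen, with PRKCN as the panel member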
[12] = target: Macrophage colony-stimulating factor 1 receptor (Homo sapiens, UniProt P07333); format: functional;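 note: value comes from the Navigating the Kinome screening panel, CSF1R member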
[13] = target: Cyclin-dependent kinase 7 (Homo sapiens, UniProt P50613); format: functional;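 note: value comes from a kinome-wide kinase profiling panel in which CDK7 is one member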
[14] = target: Serine/threonine-protein kinase PAK 4 (Homo sapiens, UniProt O96013); format: functional;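 note: value obtained within a kinome profiling panel in which PAK4 was one of the panel members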
[15] = target: Mitogen-activated protein kinase kinase kinase kinase 2 (Homo sapiens, UniProt Q12851); format: functional;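 note: measured as one member of a kinome-wide kinase panel, with MAP4K2 as the panel entry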
[16] = target: Mitogen-activated protein kinase 9 (Homo sapiens, UniProt P45984); format: functional;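 note: value from a kinome panel profiling assay, MAPK9 panel entry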
[17] = target: Serine/threonine-protein kinase Nek2 (Homo sapiens, UniProt P51955); format: functional
[18] = target: Receptor-type tyrosine-protein kinase FLT3 (Homo sapiens, UniProt P36888); format: functional;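 note: FLT3 was tested as one member of a kinome-wide kinase panel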
[19] = target: Tyrosine-protein kinase JAK2 (Homo sapiens, UniProt O60674); format: functional;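 note: JAK2 tested as one member of a kinase panel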
[20] = target: Cyclin-dependent kinase 9 (Homo sapiens, UniProt P50750); format: functional;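 note: value from the CDK9 entry of a kinome-spanning kinase panel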
[21] = target: Leucine-rich repeat serine/threonine-protein kinase 2 (Homo sapiens, UniProt Q5S007); format: functional;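 note: value from a broad kinome-wide panel profiling study in which LRRK2 was one of the kinases tested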
[22] = target: Serine/threonine-protein kinase pim-1 (Homo sapiens, UniProt P11309); format: functional
[23] = target: Cyclin-dependent kinase 5 (Homo sapiens, UniProt Q00535); format: functional;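 note: CDK5 measured as one member of a kinase profiling panel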
[24] = target: Tyrosine-protein kinase ABL1 (Homo sapiens, UniProt P00519); format: functional
[25] = target: Mitogen-activated protein kinase 14 (Homo sapiens, UniProt Q16539); format: functional;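 note: part of a kinome-wide panel, MAPK14 entry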
[26] = target: Dual specificity tyrosine-phosphorylation-regulated kinase 1A (Homo sapiens, UniProt Q13627); format: functional;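 note: measured against DYRK1A as one member of a broad kinome profiling panel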
[27] = target: Hepatocyte growth factor receptor (Homo sapiens, UniProt P08581); format: functional;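 note: kinase panel profiling across the kinome, with MET as the panel member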
[28] = target: Serine/threonine-protein kinase TBK1 (Homo sapiens, UniProt Q9UHD2); assay: Navigating the Kinome. Panel member name: TBK1; format: functional
[29] = target: Vascular endothelial growth factor receptor 1 (Homo sapiens, UniProt P17948); format: functional;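 note: measured within a kinome-wide profiling panel, FLT1 as the panel member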
[30] = target: Platelet-derived growth factor receptor alpha (Homo sapiens, UniProt P16234); assay: Navigating the Kinome. Panel member name: PDGFRA; format: functional
[31] = target: Glycogen synthase kinase-3 beta (Homo sapiens, UniProt P49841); format: functional;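 note: value comes from a broad kinome profiling panel, with GSK3B as the panel member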
Beta-galactosidase = Beta-galactosidase (Escherichia coli, UniProt Q8VNN2); assay: detection-enzyme interference by beta-gal modulators – biochemical, E. coli enzyme, set 3, artefact control for CCR6 antagonist project, dose response (AID 504712); format: functional
[32] = Luminescence Cell-Based Dose Response HTS to Identify Inhibitors of 5'UTR Stem-Loop Driven Prion Protein mRNA Translation in H4 Neuroglioblastoma Cells. [Related pubchem assays: 1827 (Project Summary), 1813 (Primary HTS)]; format: functional
[33] = system: Streptococcus sp. 'group A'; assay: Streptococcus pyogenes SK(-)GAS viability under kanamycin – luminescence, BacTiterGlo, confirmation, counter-screen for streptokinase expression inhibitor project, dose response (AID 1900); format: functional, organism-based
[34] = cAMP pathway inhibition in counterscreen cell line – TR-FRET cAMP detection, counter-screen for MC4R biased antagonist project, dose response (AID 602305); format: functional, cell-based;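 note: U2OS cells stimulated with forskolin near its EC80 as the cAMP inducer; potency is for inhibition of forskolin-stimulated cAMP signaling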
[35] = target: Matrix metalloproteinase-14 (Homo sapiens, UniProt P50281); assay: SAR confirmation of uHTS hits for a small molecule inhibitors of MT1-MMP activation in a fluorescence assay.; format: functional
Caspase-3 = target: T1, Caspase-3 (Homo sapiens, UniProt P42574); assay: SAR Analysis of small molecule inhibitors of Sentrin-specific proteases (SENPs) using a Caspase-3 Selectivity assay. [Related pubchem assays (depositor defined):AID2540, AID2599, AID434973, AID489001]; format: functional
T1 sequence (P42574 whole entry): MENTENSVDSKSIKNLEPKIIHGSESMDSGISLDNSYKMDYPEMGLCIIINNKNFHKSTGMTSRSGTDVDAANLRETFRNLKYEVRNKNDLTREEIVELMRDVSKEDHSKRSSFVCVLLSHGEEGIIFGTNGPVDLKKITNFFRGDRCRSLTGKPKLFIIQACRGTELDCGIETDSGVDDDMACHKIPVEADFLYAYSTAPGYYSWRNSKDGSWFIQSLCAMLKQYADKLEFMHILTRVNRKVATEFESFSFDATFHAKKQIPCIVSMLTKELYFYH

Chain of Dual specificity protein kinase CLK4 (Q9HAZ1 whole entry): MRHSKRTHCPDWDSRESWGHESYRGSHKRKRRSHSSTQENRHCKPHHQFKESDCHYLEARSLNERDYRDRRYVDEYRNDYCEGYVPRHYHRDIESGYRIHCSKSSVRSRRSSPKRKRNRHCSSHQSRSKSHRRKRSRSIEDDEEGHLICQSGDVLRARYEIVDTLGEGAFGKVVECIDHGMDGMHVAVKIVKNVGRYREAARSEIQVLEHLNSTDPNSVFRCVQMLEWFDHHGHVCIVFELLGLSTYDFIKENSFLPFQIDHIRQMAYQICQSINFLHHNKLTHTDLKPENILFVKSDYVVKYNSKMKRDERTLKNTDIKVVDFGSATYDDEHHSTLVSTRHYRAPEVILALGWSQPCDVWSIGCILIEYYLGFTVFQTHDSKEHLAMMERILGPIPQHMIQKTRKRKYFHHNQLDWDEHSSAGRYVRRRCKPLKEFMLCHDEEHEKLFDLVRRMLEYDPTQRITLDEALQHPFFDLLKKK
Chain of Tyrosine-protein kinase ABL1 (P00519 whole entry): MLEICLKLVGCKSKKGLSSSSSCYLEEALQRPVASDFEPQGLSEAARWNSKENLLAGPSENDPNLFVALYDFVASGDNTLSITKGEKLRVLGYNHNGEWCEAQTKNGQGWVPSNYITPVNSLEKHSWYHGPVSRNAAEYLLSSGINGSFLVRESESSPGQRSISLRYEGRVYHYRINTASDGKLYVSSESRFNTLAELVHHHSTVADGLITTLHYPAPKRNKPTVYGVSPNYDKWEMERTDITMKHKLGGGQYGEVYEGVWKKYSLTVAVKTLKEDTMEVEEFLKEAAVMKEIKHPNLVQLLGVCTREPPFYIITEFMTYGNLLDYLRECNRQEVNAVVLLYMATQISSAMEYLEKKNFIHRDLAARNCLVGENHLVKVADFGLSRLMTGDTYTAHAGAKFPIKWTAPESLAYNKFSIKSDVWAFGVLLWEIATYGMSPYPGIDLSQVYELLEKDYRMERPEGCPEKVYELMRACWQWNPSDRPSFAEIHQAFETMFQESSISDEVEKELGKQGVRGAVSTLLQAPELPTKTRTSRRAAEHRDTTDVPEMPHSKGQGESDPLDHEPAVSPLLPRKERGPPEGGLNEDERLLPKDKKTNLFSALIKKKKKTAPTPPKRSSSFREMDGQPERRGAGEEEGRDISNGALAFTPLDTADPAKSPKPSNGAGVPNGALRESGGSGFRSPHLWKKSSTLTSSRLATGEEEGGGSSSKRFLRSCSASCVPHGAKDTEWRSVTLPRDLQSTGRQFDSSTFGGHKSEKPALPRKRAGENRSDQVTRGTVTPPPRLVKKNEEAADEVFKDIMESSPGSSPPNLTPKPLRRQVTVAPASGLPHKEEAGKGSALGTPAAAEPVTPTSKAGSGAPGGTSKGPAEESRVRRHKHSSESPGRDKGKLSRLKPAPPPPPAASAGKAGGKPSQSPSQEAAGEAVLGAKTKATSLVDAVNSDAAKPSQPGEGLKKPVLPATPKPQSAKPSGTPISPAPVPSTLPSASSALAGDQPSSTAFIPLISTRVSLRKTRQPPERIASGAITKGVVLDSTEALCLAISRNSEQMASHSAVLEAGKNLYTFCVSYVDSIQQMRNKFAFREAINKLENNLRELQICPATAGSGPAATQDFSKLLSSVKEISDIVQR
Chain of Leukocyte tyrosine kinase receptor (P29376 whole entry): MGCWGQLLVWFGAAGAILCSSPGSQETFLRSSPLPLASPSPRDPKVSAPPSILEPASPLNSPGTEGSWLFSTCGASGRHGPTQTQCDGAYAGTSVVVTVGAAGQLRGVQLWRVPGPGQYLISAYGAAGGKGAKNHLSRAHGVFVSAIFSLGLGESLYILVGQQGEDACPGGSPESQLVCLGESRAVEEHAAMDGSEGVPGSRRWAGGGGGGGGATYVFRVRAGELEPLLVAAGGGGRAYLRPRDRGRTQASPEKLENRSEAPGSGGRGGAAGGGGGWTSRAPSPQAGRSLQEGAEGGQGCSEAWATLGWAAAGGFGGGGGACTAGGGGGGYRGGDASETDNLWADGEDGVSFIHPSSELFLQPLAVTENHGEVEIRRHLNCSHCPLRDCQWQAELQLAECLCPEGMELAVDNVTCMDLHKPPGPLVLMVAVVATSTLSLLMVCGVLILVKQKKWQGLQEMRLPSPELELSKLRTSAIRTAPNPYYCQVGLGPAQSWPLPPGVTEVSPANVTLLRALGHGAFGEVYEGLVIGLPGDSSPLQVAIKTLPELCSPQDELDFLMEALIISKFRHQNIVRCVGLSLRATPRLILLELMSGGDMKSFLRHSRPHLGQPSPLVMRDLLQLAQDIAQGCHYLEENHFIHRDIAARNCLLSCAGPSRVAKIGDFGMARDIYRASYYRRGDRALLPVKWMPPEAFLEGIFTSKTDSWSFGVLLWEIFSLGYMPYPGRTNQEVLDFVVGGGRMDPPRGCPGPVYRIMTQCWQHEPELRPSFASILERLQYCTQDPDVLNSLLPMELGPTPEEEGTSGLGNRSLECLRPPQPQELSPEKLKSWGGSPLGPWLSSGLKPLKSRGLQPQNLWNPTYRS
Chain of Mitogen-activated protein kinase 14 (Q16539 whole entry): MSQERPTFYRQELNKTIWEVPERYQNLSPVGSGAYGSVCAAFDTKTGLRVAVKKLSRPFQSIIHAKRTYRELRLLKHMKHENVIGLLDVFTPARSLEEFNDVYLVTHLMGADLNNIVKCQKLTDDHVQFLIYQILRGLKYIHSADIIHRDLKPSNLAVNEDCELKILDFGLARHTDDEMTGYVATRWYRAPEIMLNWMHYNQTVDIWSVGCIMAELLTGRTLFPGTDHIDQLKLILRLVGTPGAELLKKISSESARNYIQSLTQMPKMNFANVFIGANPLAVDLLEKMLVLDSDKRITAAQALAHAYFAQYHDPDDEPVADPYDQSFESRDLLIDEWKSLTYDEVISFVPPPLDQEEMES
Chain of Cyclin-dependent kinase 9 (P50750 whole entry): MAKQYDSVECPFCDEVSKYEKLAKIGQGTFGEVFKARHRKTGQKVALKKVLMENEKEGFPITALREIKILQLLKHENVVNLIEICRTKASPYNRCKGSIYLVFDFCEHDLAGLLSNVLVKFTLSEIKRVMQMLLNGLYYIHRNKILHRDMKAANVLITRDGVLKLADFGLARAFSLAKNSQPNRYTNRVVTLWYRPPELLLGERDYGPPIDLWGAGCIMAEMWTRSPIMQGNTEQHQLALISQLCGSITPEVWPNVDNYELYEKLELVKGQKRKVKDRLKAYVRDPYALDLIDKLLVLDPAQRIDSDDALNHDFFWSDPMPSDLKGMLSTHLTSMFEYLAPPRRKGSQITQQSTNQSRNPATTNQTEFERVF
Chain of Casein kinase I isoform alpha (P48729 whole entry, canonical isoform): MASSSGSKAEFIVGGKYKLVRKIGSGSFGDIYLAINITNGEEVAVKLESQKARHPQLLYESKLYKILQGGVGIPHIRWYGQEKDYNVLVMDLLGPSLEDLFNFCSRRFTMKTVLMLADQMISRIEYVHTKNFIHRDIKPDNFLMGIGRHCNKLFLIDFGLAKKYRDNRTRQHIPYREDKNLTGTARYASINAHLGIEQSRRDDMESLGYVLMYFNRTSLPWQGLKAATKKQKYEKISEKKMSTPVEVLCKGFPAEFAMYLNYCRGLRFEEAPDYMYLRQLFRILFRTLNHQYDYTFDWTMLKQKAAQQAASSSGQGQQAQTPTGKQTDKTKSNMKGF
Chain of High affinity nerve growth factor receptor (P04629 whole entry): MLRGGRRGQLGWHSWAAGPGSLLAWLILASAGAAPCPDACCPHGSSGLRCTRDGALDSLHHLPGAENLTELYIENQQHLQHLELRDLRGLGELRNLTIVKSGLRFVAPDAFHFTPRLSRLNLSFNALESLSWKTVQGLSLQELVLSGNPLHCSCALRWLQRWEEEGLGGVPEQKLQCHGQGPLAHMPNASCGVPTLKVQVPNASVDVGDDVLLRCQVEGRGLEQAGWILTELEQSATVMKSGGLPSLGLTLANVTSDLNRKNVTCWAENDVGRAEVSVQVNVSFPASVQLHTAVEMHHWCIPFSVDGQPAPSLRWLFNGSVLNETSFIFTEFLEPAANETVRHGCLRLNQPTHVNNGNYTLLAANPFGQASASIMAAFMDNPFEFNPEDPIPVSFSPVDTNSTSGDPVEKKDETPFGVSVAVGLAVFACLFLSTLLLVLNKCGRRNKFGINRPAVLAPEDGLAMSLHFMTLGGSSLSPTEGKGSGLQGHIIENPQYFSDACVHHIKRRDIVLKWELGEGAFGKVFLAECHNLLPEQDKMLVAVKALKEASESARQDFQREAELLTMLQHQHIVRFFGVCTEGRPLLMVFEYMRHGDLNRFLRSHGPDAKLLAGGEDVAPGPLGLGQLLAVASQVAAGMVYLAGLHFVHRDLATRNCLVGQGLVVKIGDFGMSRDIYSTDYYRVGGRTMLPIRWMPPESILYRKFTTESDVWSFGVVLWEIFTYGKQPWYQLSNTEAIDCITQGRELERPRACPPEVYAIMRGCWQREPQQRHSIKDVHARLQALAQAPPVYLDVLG
Chain of Dual specificity mitogen-activated protein kinase kinase 2 (P36507 whole entry): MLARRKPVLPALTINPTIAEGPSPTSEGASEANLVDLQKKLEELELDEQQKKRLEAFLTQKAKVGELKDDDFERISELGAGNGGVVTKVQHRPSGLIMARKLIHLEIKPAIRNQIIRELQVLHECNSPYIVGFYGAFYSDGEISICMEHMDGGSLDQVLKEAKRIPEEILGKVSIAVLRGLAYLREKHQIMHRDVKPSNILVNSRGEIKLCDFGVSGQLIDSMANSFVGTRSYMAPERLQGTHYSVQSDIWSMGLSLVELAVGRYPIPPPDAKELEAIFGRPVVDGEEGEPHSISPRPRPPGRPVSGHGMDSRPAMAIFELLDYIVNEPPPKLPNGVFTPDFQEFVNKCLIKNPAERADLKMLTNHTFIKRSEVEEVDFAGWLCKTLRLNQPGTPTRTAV

With COc1cccc(C(C)NC(=O)c2ccc(-c3ccncc3)s2)c1 (centres undefined) the Ki [1] was > 5.01 µM (inactive), the Ki [2] was > 6.31 µM (inactive) and the Ki (Activated CDC42 kinase 1) was > 3.98 µM (inactive). For the same compound, the Ki [3] was > 6.31 µM (inactive), the Ki (Aurora kinase B) was 0.398 µM (active) and the Ki [4] was > 3.16 µM (inactive). For the same compound, the Ki [5] was > 3.98 µM (inactive), the Ki [6] was > 2.51 µM (inactive) and the Ki [7] was 0.316 µM (active). The Ki [8] was > 3.98 µM (inactive), the Ki [9] was > 3.16 µM (inactive) and the Ki [10] was 1.58 µM (active). The Ki [11] was > 3.98 µM (inactive), the Ki [12] was > 2.51 µM (inactive) and the Ki [13] was > 3.98 µM (inactive). The Ki [14] was > 5.01 µM (inactive), the Ki [15] was > 2.51 µM (inactive) and the Ki [16] was > 3.98 µM (inactive). The Ki [17] was > 3.16 µM (inactive), the Ki [18] was > 3.16 µM (inactive) and the Ki [19] was > 2.51 µM (inactive). The Ki [20] was > 1.58 µM (inactive), the Ki [21] was > 2.51 µM (inactive) and the Ki [22] was > 6.31 µM (inactive). For the same compound, the Ki [23] was > 3.16 µM (inactive), the Ki [24] was > 2.51 µM (inactive) and the Ki [25] was > 3.98 µM (inactive). For the same compound, the Ki [26] was > 2 µM (inactive), the Ki [27] was > 2.51 µM (inactive) and the Ki [28] was > 3.16 µM (inactive). The Ki [29] was > 3.98 µM (inactive), the Ki [30] was > 2.51 µM (inactive) and the Ki [31] was 1.26 µM (active).
With O=Nc1c(-c2c(O)[nH]c3cc(Br)ccc23)[nH]c2ccccc12 the IC50 (Beta-galactosidase) was 40.8 µM (inactive), the EC50 [32] was > 120 µM (not active) and the EC50 [33] was 2.6 µM (active). For the same compound, the IC50 [34] was > 64.6 µM (inactive) and the IC50 [35] was 8.89 µM (active).
For Cc1ccc(NC(=O)COc2cccc(/C=C3\SC(=S)N(CCC(=O)O)C3=O)c2)cc1Cl, the IC50 (Caspase-3) was > 99 µM (inactive).
